# What was measured:
# p-PRAS40 = system: p-PRAS40; design: method as in PMID 31118521; conditions: at 4 h post-dosing; cited from earlier work
# [1] = design: method as in PMID 31478386; conditions: clinical; cited from earlier work
# [2] = human, in vivo
# Source text: Safety evaluations included adverse events (AEs), vital signs, laboratory tests, and 12-lead electrocardiograms at screening, at planned times during each cycle, during follow-up, and up to 30 days after the last dose. Adverse events were graded using the National Cancer Institute Common CTCAE version 4.03.
# Descriptive statistics were used to summarize demographic data, other baseline characteristics, AEs, safety parameters, and tumor assessment data. […] All subjects who completed the study were included in the evaluation of PD/PK. […] The incidence of treatment-emergent adverse events and drug-related adverse events, respectively, was summarized by treatment in frequency tables using the CTCAE grade.
# [3] = system: cells with PI3K/AKT/mTOR pathway alterations; conditions: cited from earlier work
# [4] = system: HR+ advanced breast cancer; design: method as in PMID 31091374; conditions: in combination with fulvestrant, cited from earlier work
compound,measurement,setting,value
NC1(C(=O)N[C@@H](CCO)c2ccc(Cl)cc2)CCN(c2ncnc3[nH]ccc23)CC1 [AZD5363],Reduction in p-PRAS40,p-PRAS40,about 60%
same,Rate of Grade 3 hyperglycemia,[1],up to 39.0%
NC(=O)c1ccc2nc(-c3ccc(C4(N)CCC4)cc3)c(-c3ccccc3)n2n1 [BAY 1125976],Patients with at least one treatment-emergent adverse event (TEAE),[2],77 (97.5%) patients
same,Patients with serious adverse events (SAEs),[2],33 patients
same,IC50 of inhibition of proliferation,[3],submicromolar
Cc1nc(NC(=O)N2CCC[C@H]2C(N)=O)sc1-c1ccnc(C(C)(C)C(F)(F)F)c1 [alpelisib],PFS,"[4]; PIK3CA-mutated HR+ advanced breast cancer after previous endocrine therapy, versus 5.7 for control",11.0 months
same,Overall response rate,"[4]; patients without PIK3CA mutation as printed, versus 12.8% placebo control",26.6%

# From PMC6966663 (Cancers, 2019)
